For the assay, the system named is male ZDF/GMI fa/fa rats. The experiment in a line: Experimental animal protocol: blood glucose, triglycerides and NEFAs in ZDF rats. Type of assay: in vivo. The note with it: 150 mg/kg twice a day oral gavage, after 2 weeks, non-fasting, mean ± SEM. As to the method:
Experimental Animal Protocol
Age and weight matched male ZDF/GMI fa/fa rats (Genetic Models) were housed at 72 degF. and 50% relative humidity with a 12 hr light and dark cycle. Starting at 8 weeks of age the animals were dosed twice a day by oral gavage with 150 mg/kg of example 2. After 2 weeks the animals were anesthetized with isofluorane, blood drawn by cardiac puncture, and non-fasting measurements of glucose, triglycerides, and non-esterified free fatty acids (NEFAS) were obtained. The data were calculated as the mean and standard error (SEM) from experiments performed on ten animals per treatment group. Two-tailed tests were performed to calculate P values using Excel on a personal computer. This research complied with the principles of laboratory animal care (NIH publication No. […], revised 1985) and company policy on the care and use of animals and related codes of practice.

On to `CCCc1nnc(C[C@H](Nc2ccccc2C(=O)c2ccccc2)c2ccc(OCCc3nc(-c4ccccc4)oc3C)cc2)o1` [Example 1, (S)-{{2-[1-(2-Benzoylphenyl)amino]-2-{4-[2-(5-methyl-2-phenyloxazol-4-yl)ethoxy]phenyl}ethyl}}-5-propyl-1,3,4-oxadiazole], for which, for the setting “control 1.48 ± 0.09”, the “Free Fatty Acids” value was 1.14 ± 0.06 mEq/L. For the same compound, the Glucose (control 313 ± 62) turned out to be 201 ± 13 mg/dL. The compound further displayed a Triglycerides (control 1507 ± 143) of 734 ± 102 mg/dL.

These data come from patent US6506781B1, “Oxazole PPAR antagonist” (SmithKline Beecham Corporation, priority 1999, dated 2003).
